One may read the AC50 as the concentration giving half of the maximal activity seen. Broadly, the IC50 is the midpoint of a concentration-inhibition curve. Broadly, the EC50 is the concentration at which the effect is half-maximal.

Activity calls are given as the source filed them.

This passage reports AC50, IC50 and EC50 results from ChEMBL document CHEMBL1201862, “PubChem BioAssay data set” (2004).

A short description of assay [1]: Luminescence Cell-Based Dose Retest to Confirm Inhibitors of Cancer Stem Cells. [Related pubchem assays (depositor defined):AID2717, AID2721]. The class given is functional. Particulars: Homo sapiens.
Assay [2] can be described thus: loss of viability in HepG2 cells – cell-based, CellTiter-Glo, cherry-picked, cytotoxicity control for Shn3 inhibitor project, dose response (AID 624134). The class given is functional.
For another assay, the system named is HEK293. Nature of the assay: membrane integrity loss in HEK cells – cell-based, fluorescence, cytotoxicity control for IDE activator project, dose response (AID 588440).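 Note: cytotoxicity by LDH release measuring loss of membrane integrity.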 Particulars: Homo sapiens. It is filed as functional.
A further assay addresses T1, Insulin-degrading enzyme (Homo sapiens, UniProt P14735).
T1 sequence (P14735 whole entry): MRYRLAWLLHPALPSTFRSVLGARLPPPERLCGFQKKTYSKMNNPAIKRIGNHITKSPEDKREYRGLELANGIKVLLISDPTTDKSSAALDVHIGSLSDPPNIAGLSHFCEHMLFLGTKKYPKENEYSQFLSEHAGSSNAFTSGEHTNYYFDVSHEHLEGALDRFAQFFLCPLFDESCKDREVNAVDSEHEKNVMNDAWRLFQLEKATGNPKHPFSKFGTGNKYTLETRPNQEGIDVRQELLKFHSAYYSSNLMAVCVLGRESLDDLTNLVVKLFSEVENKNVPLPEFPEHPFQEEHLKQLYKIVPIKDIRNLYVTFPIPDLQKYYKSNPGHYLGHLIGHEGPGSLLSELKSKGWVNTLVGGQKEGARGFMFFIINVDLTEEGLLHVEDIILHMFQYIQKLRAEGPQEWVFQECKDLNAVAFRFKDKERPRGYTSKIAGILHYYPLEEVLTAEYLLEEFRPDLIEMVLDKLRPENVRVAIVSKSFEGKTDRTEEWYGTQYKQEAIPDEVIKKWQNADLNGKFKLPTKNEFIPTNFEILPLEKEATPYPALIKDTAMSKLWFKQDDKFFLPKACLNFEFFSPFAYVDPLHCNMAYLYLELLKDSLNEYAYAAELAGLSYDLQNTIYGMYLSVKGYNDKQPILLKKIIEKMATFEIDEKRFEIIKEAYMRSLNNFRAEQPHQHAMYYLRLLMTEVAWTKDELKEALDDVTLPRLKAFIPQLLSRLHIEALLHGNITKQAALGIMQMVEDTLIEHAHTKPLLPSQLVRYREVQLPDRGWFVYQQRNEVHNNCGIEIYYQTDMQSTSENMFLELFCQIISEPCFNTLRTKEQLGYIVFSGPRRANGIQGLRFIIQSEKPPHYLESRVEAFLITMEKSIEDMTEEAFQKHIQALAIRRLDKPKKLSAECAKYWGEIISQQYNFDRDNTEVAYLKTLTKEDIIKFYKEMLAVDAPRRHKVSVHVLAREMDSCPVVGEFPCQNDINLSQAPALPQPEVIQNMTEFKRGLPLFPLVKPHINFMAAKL
Nature of the assay: cellular IDE activation of Abeta substrate cleavage – fluorescence polarization, HEK cells, dose response (AID 588439). The class given is functional, cell-based.

The target of another assay is T2, Hexokinase-1 (Homo sapiens, UniProt P19367).
T2 sequence (P19367 whole entry): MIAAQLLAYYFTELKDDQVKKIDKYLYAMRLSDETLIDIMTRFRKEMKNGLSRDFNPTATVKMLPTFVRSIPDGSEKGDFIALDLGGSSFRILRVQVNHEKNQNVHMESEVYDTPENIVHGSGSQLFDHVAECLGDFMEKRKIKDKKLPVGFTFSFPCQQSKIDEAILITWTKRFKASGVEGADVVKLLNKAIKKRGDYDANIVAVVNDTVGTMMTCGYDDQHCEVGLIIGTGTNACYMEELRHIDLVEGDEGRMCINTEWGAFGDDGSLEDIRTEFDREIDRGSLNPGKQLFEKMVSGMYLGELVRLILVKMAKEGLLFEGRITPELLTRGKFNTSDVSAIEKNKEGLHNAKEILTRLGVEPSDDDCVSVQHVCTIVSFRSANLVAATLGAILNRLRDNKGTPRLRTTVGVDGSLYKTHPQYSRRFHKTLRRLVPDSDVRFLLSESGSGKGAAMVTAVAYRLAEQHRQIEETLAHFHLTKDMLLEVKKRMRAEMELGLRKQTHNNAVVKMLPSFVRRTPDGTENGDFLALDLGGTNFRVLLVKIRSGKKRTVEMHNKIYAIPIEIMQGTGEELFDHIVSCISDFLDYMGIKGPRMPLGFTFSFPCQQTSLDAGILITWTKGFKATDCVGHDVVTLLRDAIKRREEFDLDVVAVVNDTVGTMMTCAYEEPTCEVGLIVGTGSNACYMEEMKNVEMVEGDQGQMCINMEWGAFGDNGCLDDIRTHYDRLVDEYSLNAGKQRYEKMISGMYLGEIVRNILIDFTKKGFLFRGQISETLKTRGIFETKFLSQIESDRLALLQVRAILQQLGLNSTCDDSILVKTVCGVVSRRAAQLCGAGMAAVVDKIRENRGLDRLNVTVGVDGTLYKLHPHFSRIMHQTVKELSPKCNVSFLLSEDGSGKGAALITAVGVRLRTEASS
Nature of the assay: hexokinase 1 activity inhibitors, potency – biochemical, set 2, resazurin fluorescence coupled readout, selectivity assay for HKDC1 inhibitor project, SAR follow-up (AID 588356). It is filed as functional. (Resazurin is reduced to fluorescent resorufin, in cell work by metabolically active cells.)

The target in another assay is Caspase-7 (Homo sapiens, UniProt P55210). Nature of the assay: activation of caspase-7 zymogen – biochemical, absorbance, counter-screen for procaspase-3 activator project, dose response (AID 489013). In general terms: A counterscreen serves to expose hits that act by an unwanted route or on another target.
Another assay concerns the target T3, Streptokinase A (Streptococcus pyogenes serotype M1, UniProt P10520).
T3 sequence (P10520 whole entry): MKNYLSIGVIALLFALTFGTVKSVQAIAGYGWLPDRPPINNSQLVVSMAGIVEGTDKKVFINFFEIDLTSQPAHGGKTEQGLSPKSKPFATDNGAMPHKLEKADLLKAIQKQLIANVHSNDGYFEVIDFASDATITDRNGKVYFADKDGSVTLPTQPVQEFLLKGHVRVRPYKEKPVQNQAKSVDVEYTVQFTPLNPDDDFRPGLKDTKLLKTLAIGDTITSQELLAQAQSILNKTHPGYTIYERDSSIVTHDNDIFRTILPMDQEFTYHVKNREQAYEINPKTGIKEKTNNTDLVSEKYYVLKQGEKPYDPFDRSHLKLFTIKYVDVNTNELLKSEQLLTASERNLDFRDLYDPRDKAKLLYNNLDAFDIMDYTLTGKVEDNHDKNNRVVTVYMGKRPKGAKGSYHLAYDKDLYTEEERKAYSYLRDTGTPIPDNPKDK
Nature of the assay: viability-normalized secreted streptokinase activity reduction – plasminogen activation absorbance, OD405, dose response (AID 1914).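 Note: secreted streptokinase activity via plasminogen activation per viability signal from cell pellet.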 It is filed as functional, Streptococcus pyogenes M1 GAS.

Chain of Caspase-7 (P55210 24-198 limits assumed): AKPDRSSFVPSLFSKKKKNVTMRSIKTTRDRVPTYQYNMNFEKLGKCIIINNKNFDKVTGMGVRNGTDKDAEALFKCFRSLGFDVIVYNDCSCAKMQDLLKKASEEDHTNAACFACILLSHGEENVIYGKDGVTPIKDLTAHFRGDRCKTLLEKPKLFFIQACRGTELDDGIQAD
Chain of Caspase-7 (P55210 207-303 limits assumed): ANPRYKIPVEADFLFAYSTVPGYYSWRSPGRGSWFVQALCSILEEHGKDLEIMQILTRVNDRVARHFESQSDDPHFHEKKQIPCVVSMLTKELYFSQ

In the case of `CCCCC(=O)NC(c1ccco1)c1cc(Cl)c2cccnc2c1O` (configuration not stated), the AC50 in assay [1] was 3.33 µM (active).

Turning to `CCCCC(=O)NC(c1ccc(Cl)cc1)c1ccc2cccnc2c1O` (configuration not stated), in assay [2], the half-maximal activity concentration (AC50) is 1.71 µM (active).

In the case of `COc1ccc2noc3c2c1C(=O)c1ccccc1-3`, in the assay with HEK293, the IC50 was > 89.2 µM (inactive). The EC50 on Insulin-degrading enzyme was > 54.7 µM (inactive).

For `CCc1ccc2c(c1)C(NC(C)=O)C(=O)N2CCN1CCOCC1` (configuration not stated), the IC50 on Hexokinase-1 was > 80 µM (inactive).

As to `O=C(N/N=C/c1ccccc1O)/C(O)=C\C1=NC2(CCCC2)Cc2ccccc21`, the figures for the EC50 on Caspase-7 and at Streptokinase A were > 85.3 µM (inactive) and > 150 µM (not active), respectively.
